# Patent US20220257595A1, “MACITENTAN FOR USE IN TREATING PORTOPULMONARY HYPERTENSION” (ACTELION PHARMACEUTICALS LTD, priority 2019, published 2022)
# Test: PORTICO PK substudy: steady-state plasma macitentan and ACT-132577
# Assay type: in vivo, human
# Method: It was planned to enroll at least 20 patients who were on steady-state treatment with macitentan (i.e., at least 4 weeks) into the PK substudy. The substudy was conducted in consenting patients from all centers across all regions who agreed to participate. The substudy consisted of the following periods:
# PK assessments period: PK assessments were to be performed after OL study treatment had been taken for at least 4 weeks. The substudy comprised two visits (Day 1: Enrollment and Day 2: Conclusion). See, FIG. 2. Subject eligibility was first checked on Day 1 of the PK substudy prior to the start of assessments.
# PK substudy: On Day 1 of the PK substudy, the study treatment was required to be taken directly after the pre-dose blood sample. On Day 2 of the PK substudy, study treatment was required to be taken after the collection of the last PK blood sample (24 hours post Day 1 dose).
# F3. Pharmacokinetic Endpoints for Macitentan and its Active Metabolite ACT-132577 • The area under the plasma concentration-time curve during one dosing interval (AUCt). • Maximum plasma concentration (Cmax) during a dosing interval. • The time to reach maximum plasma concentration (tmax) during a dosing interval.
# (i) Timing for sampling: For the PK assessment, blood samples were drawn at the following time points: • PK substudy Day 1: Immediately before study treatment administration in the morning (pre-dose) and 1 h, 3 h, 5 h, 6 h, 7 h, 8 h, 9 h, 10 h, 12 h, and 14 h post-dose. • PK substudy Day 2: 24 h post-dose.
# (iii) Bioanalysis: A validated liquid chromatography coupled to mass spectrometry method was used for determining the concentrations of macitentan and its metabolite ACT-132577 in plasma. The limit of quantification (LOQ) for both analytes was 1 ng/mL.
# The measured individual plasma concentrations of macitentan and its metabolite ACT-132577 were used to directly obtain Cmax and tmax. AUCT was calculated according to the linear trapezoidal rule using the measured concentration-time values above the LOQ during one dosing interval. The PK variables were calculated on the basis of the real (actual) blood sampling time points. For mean value calculations, all values below the LOQ (below the limit of quantification (BLQ) values) were set to zero if ≤50% of the values at a given time point were BLQ. If >50% of the values at a given time point were BLQ, no mean value was calculated. Mean concentration-time profiles were generated using these criteria. The individual and mean plasma concentration-time profiles were plotted on a linear scale. The derived PK variables for macitentan and ACT-132577 (AUCT, Cmax, tmax) are listed by patient. Plasma concentrations per time point were summarized using arithmetic mean, minimum, median, maximum, standard deviation (SD), standard error (SE), and two-sided 95% confidence interval of the mean. […] (*For tmax the geometric mean and its 95% confidence interval were not calculated).
compound,measurement,setting,value
"NS(=O)(=O)Nc1ncnc(OCCOc2ncc(Br)cn2)c1-c1ccc(Br)cc1 [ACT-132577, aprocitentan]",Plasma exposure in PoPH patients compared with other forms of PAH / other macitentan studies,,consistent between PoPH patients and patients with other forms of PAH
same,"Trough plasma concentration, mean±SD","OL macitentan 10 mg o.d. at least 4 weeks, PoPH patients, n=8",737.4 ± 190.0 ng/mL
same,Cmax,"human, plasma, oral, macitentan 10 mg o.d., PoPH patients, PKS 10 patients, read-out: Cmax, geometric mean (95% confidence interval)",870 ng/mL
same,Tmax,"human, plasma, oral, macitentan 10 mg o.d., PoPH patients, PKS 10 patients, read-out: tmax, median (range)",6.5 h
same,"AUCT, geometric mean (95% confidence interval)","one dosing interval, macitentan 10 mg o.d., PoPH patients",18100.0 ng·h/mL
